pIC50: −log10 of the molar value. Where a SMILES comes first, the peptide text is derived from it. Bridges are numbered along the chain shown (N, C = ends). [ ]: non-standard residue; d: D form. Nle = CCCC[C@H](N)C(=O)O
Molecular target: T1, recombinant human VEGF165 (Homo sapiens, UniProt P15692)
T1 sequence (P15692 27-191 isoform P15692-4): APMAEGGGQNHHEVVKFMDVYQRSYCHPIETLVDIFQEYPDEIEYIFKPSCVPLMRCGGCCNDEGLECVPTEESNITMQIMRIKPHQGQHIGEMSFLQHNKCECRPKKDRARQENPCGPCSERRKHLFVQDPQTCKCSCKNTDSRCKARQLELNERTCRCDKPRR
Experiment: VEGF peptide binding assay (competition ELISA, VEGF165 binding to coated VEGFR2/Fc)
Summary of the method: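 VEGFR2/Fc was coated, and peptides (0.128–10,000 nM, N-acetyl, C-amide) were preincubated with 25 ng/ml human VEGF165 and added for 1 h at RT. Bound VEGF was detected with biotinylated anti-VEGF, streptavidin-HRP and TMB at OD450. IC50 came from sigmoid dose-response fits of OD450 versus concentration.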

| Structure (SMILES) | pIC50 |
| --- | --- |
| CC[C@H](C)[C@@H]1NC(=O)[C@H](CC(=O)O)NC(=O)[C@@H](NC(=O)[C@H](CC(N)=O)NC(=O)[C@@H]2CCCN2C(=O)[C@H](CCC(=O)O)NC(=O)[C@@H](NC(C)=O)C(C)C)CSSC[C@@H](C(=O)N[C@@H](Cc2ccccc2)C(=O)N[C@@H](CCC(=O)O)C(=O)N[C@@H](CCCNC(=N)N)C(=O)N[C@@H](CC(C)C)C(=O)N[C@@H](Cc2ccc(O)cc2)C(=O)NCC(=O)N2CCC[C@H]2C(=O)N[C@@H](Cc2c[nH]c3ccccc23)C(N)=O)NC(=O)[C@H](CCC(=O)O)NC(=O)[C@H](Cc2c[nH]c3ccccc23)NC(=O)[C@H](C(C)C)NC(=O)[C@H](Cc2c[nH]c3ccccc23)NC(=O)[C@H](CCSC)NC(=O)[C@H](C(C)C)NC(=O)[C@H](Cc2c[nH]cn2)NC1=O [Compound 66, VEPNCDIHVMWVWECFERLYGPW] (Ac-VEPNCDIHVMWVWECFERLYGPW-NH2; disulfide 5-15 (inferred)) | 7.73 |
| CC[C@H](C)[C@@H]1NC(=O)[C@H](CC(=O)O)NC(=O)[C@@H](NC(=O)[C@H](CC(N)=O)NC(=O)[C@@H]2CCCN2C(=O)[C@H](CCC(=O)O)NC(=O)[C@@H](NC(C)=O)C(C)C)CSSC[C@@H](C(=O)N[C@@H](Cc2ccccc2)C(=O)N[C@@H](CCC(=O)O)C(=O)N[C@@H](CCCNC(=N)N)C(=O)N[C@@H](CC(C)C)C(=O)N[C@@H](Cc2ccccc2)C(=O)N[C@@H](CCCCN)C(=O)N[C@@H](CCC(=O)O)C(=O)N[C@@H](C)C(N)=O)NC(=O)[C@H](C(C)C)NC(=O)[C@H](Cc2c[nH]c3ccccc23)NC(=O)[C@H](C(C)C)NC(=O)[C@H](Cc2c[nH]c3ccccc23)NC(=O)[C@H](CCSC)NC(=O)[C@H](C(C)C)NC(=O)[C@H](Cc2c[nH]cn2)NC1=O [Compound 37, VEPNCDIHVMWVWVCFERLFKEA] (Ac-VEPNCDIHVMWVWVCFERLFKEA-NH2; disulfide 5-15 (inferred)) | 7.23 |
| CC[C@H](C)[C@@H]1NC(=O)[C@H](CC(=O)O)NC(=O)[C@@H](NC(=O)[C@H](CC(N)=O)NC(=O)[C@@H]2CCCN2C(=O)[C@H](CCC(=O)O)NC(=O)[C@@H](NC(C)=O)C(C)C)CSSC[C@@H](C(=O)N[C@@H](Cc2ccccc2)C(=O)N[C@@H](CCC(=O)O)C(=O)N[C@@H](CCCNC(=N)N)C(=O)N[C@@H](CC(C)C)C(N)=O)NC(=O)[C@H](CCC(=O)O)NC(=O)[C@H](Cc2c[nH]c3ccccc23)NC(=O)[C@H](C(C)C)NC(=O)[C@H](Cc2c[nH]c3ccccc23)NC(=O)[C@H](CCSC)NC(=O)[C@H](C(C)C)NC(=O)[C@H](Cc2c[nH]cn2)NC1=O [Compound 64, V-E-P-N-C-D-I-H-V-M-W-V-W-E-C-F-E-R-L-] (Ac-VEPNCDIHVMWVWECFERL-NH2; disulfide 5-15 (inferred)) | 7.62 |
| CC[C@H](C)[C@@H]1NC(=O)[C@H](CC(=O)O)NC(=O)[C@@H](NC(=O)[C@H](CC(N)=O)NC(=O)[C@@H]2CCCN2C(=O)[C@H](CCC(=O)O)NC(=O)[C@@H](NC(C)=O)C(C)C)CSSC[C@@H](C(=O)N[C@@H](Cc2ccccc2)C(=O)N[C@@H](CCC(=O)O)C(=O)N[C@@H](CCCNC(=N)N)C(=O)N[C@@H](CC(C)C)C(=O)N[C@@H](Cc2ccccc2)C(=O)N[C@@H](CCCNC(=N)N)C(=O)N[C@@H](CCC(=O)O)C(=O)N[C@@H](C)C(N)=O)NC(=O)[C@H](C(C)C)NC(=O)[C@H](Cc2c[nH]c3ccccc23)NC(=O)[C@H](C(C)C)NC(=O)[C@H](Cc2c[nH]c3ccccc23)NC(=O)[C@H](CCSC)NC(=O)[C@H](C(C)C)NC(=O)[C@H](Cc2c[nH]cn2)NC1=O [Compound 36, VEPNCDIHVMWVWVCFERLFREA] (Ac-VEPNCDIHVMWVWVCFERLFREA-NH2; disulfide 5-15 (inferred)) | 6.76 |
| CC[C@H](C)[C@H](NC(=O)CNC(=O)[C@H](Cc1ccc(O)cc1)NC(=O)[C@H](CC(C)C)NC(=O)[C@H](CCCNC(=N)N)NC(=O)[C@H](CCC(=O)O)NC(=O)[C@H](Cc1ccccc1)NC(=O)[C@@H]1CSSC[C@H](NC(=O)[C@H](CC(N)=O)NC(=O)[C@@H]2CCCN2C(=O)[C@H](CCC(=O)O)NC(=O)[C@@H](NC(C)=O)C(C)C)C(=O)N[C@@H](CC(=O)O)C(=O)N[C@@H]([C@@H](C)CC)C(=O)N[C@@H](Cc2c[nH]cn2)C(=O)N[C@@H](C(C)C)C(=O)N[C@@H](CCSC)C(=O)N[C@@H](Cc2c[nH]c3ccccc23)C(=O)N[C@@H](C(C)C)C(=O)N[C@@H](Cc2c[nH]c3ccccc23)C(=O)N[C@@H](CCC(=O)O)C(=O)N1)C(=O)N[C@@H](CC(C)C)C(N)=O [Compound 50, VEPNCDIHVMWVWECFERLYGIL] (Ac-VEPNCDIHVMWVWECFERLYGIL-NH2; disulfide 5-15 (inferred)) | 7.46 |
| CC[C@H](C)[C@@H]1NC(=O)[C@H](CC(=O)O)NC(=O)[C@@H](NC(=O)[C@H](CC(N)=O)NC(=O)[C@@H]2CCCN2C(=O)[C@H](CCC(=O)O)NC(=O)[C@@H](NC(C)=O)C(C)C)CSSC[C@@H](C(=O)N[C@@H](Cc2ccccc2)C(=O)N[C@@H](CCC(=O)O)C(=O)N[C@@H](CCCNC(=N)N)C(=O)N[C@@H](CC(C)C)C(=O)N[C@@H](CC(C)C)C(=O)N[C@@H](CCCCNC(C)=O)C(N)=O)NC(=O)[C@H](CCC(=O)O)NC(=O)[C@H](Cc2c[nH]c3ccccc23)NC(=O)[C@H](C(C)C)NC(=O)[C@H](Cc2c[nH]c3ccccc23)NC(=O)[C@H](CCSC)NC(=O)[C@H](C(C)C)NC(=O)[C@H](Cc2c[nH]cn2)NC1=O [Compound 68, VEPNCDIHVMWVWECFERLL-(Kac)] (Ac-VEPNCDIHVMWVWECFERLLK(Ac)-NH2; disulfide 5-15 (inferred)) | 8.00 |
| CC[C@H](C)[C@@H]1NC(=O)[C@H](CC(=O)O)NC(=O)[C@@H](NC(=O)[C@H](CC(N)=O)NC(=O)[C@@H]2CCCN2C(=O)[C@H](CCC(=O)O)NC(=O)[C@@H](NC(C)=O)C(C)C)CSSC[C@@H](C(=O)N[C@@H](Cc2ccccc2)C(=O)N[C@@H](CCC(=O)O)C(=O)N[C@@H](CCCNC(=N)N)C(=O)N[C@@H](CC(C)C)C(=O)N[C@@H](Cc2ccc(O)cc2)C(=O)NCC(=O)N[C@H](C(=O)N[C@@H](CCC(N)=O)C(N)=O)C(C)C)NC(=O)[C@H](CCC(=O)O)NC(=O)[C@H](Cc2c[nH]c3ccccc23)NC(=O)[C@H](C(C)C)NC(=O)[C@H](Cc2c[nH]c3ccccc23)NC(=O)[C@H](CCSC)NC(=O)[C@H](C(C)C)NC(=O)[C@H](Cc2c[nH]cn2)NC1=O [Compound 74, VEPNCDIHVMWVWECFERLYGVQ] (Ac-VEPNCDIHVMWVWECFERLYGVQ-NH2; disulfide 5-15 (inferred)) | 8.40 |
| CCCC[C@H](NC(=O)[C@H](CC(C)C)NC(=O)[C@H](CCCNC(=N)N)NC(=O)[C@H](CCC(=O)O)NC(=O)[C@H](Cc1ccccc1)NC(=O)[C@@H]1CSSC[C@H](NC(=O)[C@H](CC(N)=O)NC(=O)[C@@H]2CCCN2C(=O)[C@H](CCC(=O)O)NC(=O)[C@@H](NC(C)=O)C(C)C)C(=O)N[C@@H](CC(=O)O)C(=O)N[C@@H]([C@@H](C)CC)C(=O)N[C@@H](Cc2c[nH]cn2)C(=O)N[C@@H](C(C)C)C(=O)N[C@@H](CCSC)C(=O)N[C@@H](Cc2c[nH]c3ccccc23)C(=O)N[C@@H](C(C)C)C(=O)N[C@@H](Cc2c[nH]c3ccccc23)C(=O)N[C@@H](CCC(=O)O)C(=O)N1)C(=O)N[C@@H](CCCCN)C(N)=O [Compound 54, V-E-P-N-C-D-I-H-V-M-W-V-W-E-C-F-E-R-L-(Nle)-K] (Ac-VEPNCDIHVMWVWECFERL[Nle]K-NH2; disulfide 5-15 (inferred)) | 7.54 |
| CC[C@H](C)[C@@H]1NC(=O)[C@H](CC(=O)O)NC(=O)[C@@H](NC(=O)[C@H](CC(N)=O)NC(=O)[C@@H]2CCCN2C(=O)[C@H](CCC(=O)O)NC(=O)[C@@H](NC(C)=O)C(C)C)CSSC[C@@H](C(=O)N[C@@H](Cc2ccccc2)C(=O)N[C@@H](CCC(=O)O)C(=O)N[C@@H](CCCNC(=N)N)C(=O)N[C@@H](CC(C)C)C(=O)N[C@@H](Cc2ccc(O)cc2)C(N)=O)NC(=O)[C@H](CCC(=O)O)NC(=O)[C@H](Cc2c[nH]c3ccccc23)NC(=O)[C@H](C(C)C)NC(=O)[C@H](Cc2c[nH]c3ccccc23)NC(=O)[C@H](CCSC)NC(=O)[C@H](C(C)C)NC(=O)[C@H](Cc2c[nH]cn2)NC1=O [Compound 41, VEPNCDIHVMWVWECFERLY] (Ac-VEPNCDIHVMWVWECFERLY-NH2; disulfide 5-15 (inferred)) | 7.16 |
| CC[C@H](C)[C@@H]1NC(=O)[C@H](CC(=O)O)NC(=O)[C@@H](NC(=O)[C@H](CC(N)=O)NC(=O)[C@@H]2CCCN2C(=O)[C@H](CCC(=O)O)NC(=O)[C@@H](NC(C)=O)C(C)C)CSSC[C@@H](C(=O)N[C@@H](Cc2ccccc2)C(=O)N[C@@H](CCC(=O)O)C(=O)N[C@@H](CCCNC(=N)N)C(=O)N[C@@H](CC(C)C)C(=O)N[C@@H](CCSC)C(=O)NCC(=O)N[C@@H](CC(C)C)C(=O)N[C@H](C(N)=O)[C@@H](C)O)NC(=O)[C@H](CCC(=O)O)NC(=O)[C@H](Cc2c[nH]c3ccccc23)NC(=O)[C@H](C(C)C)NC(=O)[C@H](Cc2c[nH]c3ccccc23)NC(=O)[C@H](CCSC)NC(=O)[C@H](C(C)C)NC(=O)[C@H](Cc2c[nH]cn2)NC1=O [Compound 59, VEPNCDIHVMWVWECFERLMGLT] (Ac-VEPNCDIHVMWVWECFERLMGLT-NH2; disulfide 5-15 (inferred)) | 7.60 |
